# Laboratory results: patent US20210109080A1, “Cell-Based Biosensor for Early Alzheimer's Disease Detection” (University of South Carolina, priority 2019, published 2021)
# Where a SMILES comes first, the peptide text is derived from it. The star is where a group is joined. Cbz = O=C(OCc1ccccc1)*
# System: HBMVEC monolayers
# Assay: FITC-BSA transendothelial transfer / permeability coefficient (Pe) across HBMVEC monolayers
# Format: cell-based, human
# Conditions: 3 μM MG-132 pre-treatment 30 min, then 5 μM MIX 24 h
# Protocol: HBMVEC monolayers were incubated alone (white circles), with 0.3-10 μM Aß aggregates (grey circles), or with TNF-α (positive control, black circles). (a) Following 24-h treatment, transfer of FITC-BSA from the apical to basolateral chamber was monitored via florescence. Error bars represent SEM, n=3. Increased permeability is evidenced by a faster transfer rate, or steeper slope. Following treatment with 5 μM Aß aggregates, the transfer rate is increased by approximately 10%. (b) TEER was monitored following addition of treatments (indicated by arrow). […] In the absence of Aß aggregates, TEER maintains a plateau, decreasing by less than 8% over 7 days.
# HBMVEC monolayers were incubated alone (CONT, white circles), with Aß monomer (MON, diamonds), with Aß aggregate mixture containing small aggregates (MIX, circles), or with Aß fibrils (FIB, triangles). (a) Using FITC-BSA transfer rates, Pe was determined after 24-h treatment with Aß concentrations of 5 μM (white bars) and 10 μM (black bars). […] (b) TEER was monitored following addition of treatments at a concentration of 5 μM (indicated by arrow).
# Pe is determined from the transfer rate of FITC-BSA and reported relative to untreated monolayers. […]
# (a) Confluent HBMVEC monolayers were incubated for 30 min with 100 pM, 1 nM, 10 nM, or 1 μM isolated small soluble Aß aggregates (SOL) (RH=43-54 nm). […] Using FITC-BSA transfer rates, Pe was determined.
compound,measurement,value
CC(C)C[C@@H](C=O)NC(=O)[C@H](CC(C)C)NC(=O)[C@H](CC(C)C)NC(=O)OCc1ccccc1 [MG-132] (Cbz-Leu-Leu-Leu-aldehyde),effect on Aß-induced increase in Pe,Abrogation of the Aß-induced increase in Pe
